Results on seven compounds are retold here after US9199989B2, “N—(imidazolidin-2-ylidene)quinoline derivatives as modulators of alpha 2 adrenergic receptors” (Allergan, Inc., priority 2011, dated 2015).

The target of this assay is T1, Alpha 2C adrenergic receptor (Homo sapiens, UniProt P18825).
T1 construct: expressed in transfected cells
T1 sequence (P18825 1-462): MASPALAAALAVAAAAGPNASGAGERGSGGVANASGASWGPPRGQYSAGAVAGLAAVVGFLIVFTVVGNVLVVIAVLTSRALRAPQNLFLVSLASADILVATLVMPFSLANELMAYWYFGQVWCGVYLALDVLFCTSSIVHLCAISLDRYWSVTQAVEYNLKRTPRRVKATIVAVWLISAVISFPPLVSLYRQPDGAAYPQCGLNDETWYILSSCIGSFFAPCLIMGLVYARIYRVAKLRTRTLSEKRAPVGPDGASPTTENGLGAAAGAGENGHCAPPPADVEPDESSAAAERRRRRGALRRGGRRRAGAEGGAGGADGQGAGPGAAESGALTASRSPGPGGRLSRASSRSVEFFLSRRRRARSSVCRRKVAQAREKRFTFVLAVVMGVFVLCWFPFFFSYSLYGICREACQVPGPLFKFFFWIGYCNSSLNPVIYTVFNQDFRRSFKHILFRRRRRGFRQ
Nature of the assay: RSAT (Receptor Selection and Amplification Technology) compound screening. Particulars: for EC50: cells expressing the alpha 2C adrenergic receptor, receptor-mediated growth response, read-out: Intrinsic Activity EC50, Alpha 2C; for Intrinsic Activity (efficacy), Alpha 2C: relative efficacy compared to a standard full agonist. It is filed as cell-based. The procedure:
Cells expressing each of the alpha 2 adrenergic receptors alone were incubated with the various compounds and a receptor-mediated growth response was measured. The compound's activity was expressed as its relative efficacy compared to a standard full agonist (see Table 2).

By EC50 is commonly meant the concentration needed to bring the measured effect to its halfway point. Consider `c1ccc2c(N=C3NCCN3)ccnc2c1` [Compound 1, N-(imidazolidin-2-ylidene)quinolin-4-amine], for which the EC50 came out at 0.0174 µM and the “Intrinsic Activity (efficacy), Alpha 2C” value is recorded as “(0.95)”.
As for `Clc1c(N=C2NCCN2)cnc2cccnc12` [Compound 2, 4-Chloro-N-(imidazolidin-2-ylidene)-1,5-naphthyridin-3-amine], the EC50 was determined as 0.021 µM and the “Intrinsic Activity (efficacy), Alpha 2C” value was “(0.95)”.
As to `Cc1c(N=C2NCCN2)cnc2ccccc12` [Compound 3, N-(imidazolidin-2-ylidene)-4-methylquinolin-3-amine], the EC50 turned out to be 1.65 µM and the “Intrinsic Activity (efficacy), Alpha 2C” value was “(0.21)”.
For the compound `Clc1c(N=C2NCCN2)cnc2ccccc12` [Compound 4, 4-Chloro-N-(imidazolidin-2-ylidene)quinolin-3-amine], the EC50 stood at 0.368 µM and the “Intrinsic Activity (efficacy), Alpha 2C” value was “(0.66)”.
For the compound `Brc1c(N=C2NCCN2)cnc2ccccc12` [Compound 5, 4-Bromo-N-(imidazolidin-2-ylidene)quinolin-3-amine], the EC50 was determined as 1.53 µM and the “Intrinsic Activity (efficacy), Alpha 2C” value is recorded as “(0.17)”.
Taken in the same sequence, the figures for `c1cnc2ncc(N=C3NCCN3)cc2n1` [Compound 6, N-(imidazolidin-2-ylidene)pyrido[2,3-b]pyrazin-7-amine] were 4.58 µM and “(0.44)”.
On the same counts, the results for `Cc1c(N=C2NCCN2)cnc2nccnc12` [Compound 7, N-(imidazolidin-2-ylidene)-8-methylpyrido[2,3-b]pyrazin-7-amine] are 0.311 µM and “(0.93)”.
